Measured values: the supplement of paper PMC10307832

Columns and labels:
Assay in all cases: relative viability (nuclei count vs DMSO), 5 days (fraction); higher = more cells survive
Elesclomol + Lapatinib = compound: CN(NC(=O)CC(=O)NN(C)C(=S)c1ccccc1)C(=S)c1ccccc1 [Elesclomol] + CS(=O)(=O)CCNCc1ccc(-c2ccc3ncnc(Nc4ccc(OCc5cccc(F)c5)c(Cl)c4)c3c2)o1 [Lapatinib] (partner 2 µM)
Outline: (§1)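 Relative viability was taken as the ratio of nuclei in treated wells to nuclei in vehicle wells. Lung cancer cell lines in 1536-well plates received compounds by pin tool one day after seeding, either one drug alone or a fixed anchor-drug dose plus five library-drug doses (not always all listed) in √10 steps. Nuclei were counted on 4× images after 5 days of treatment, and values are medians of duplicate plates.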

Elesclomol + Pemetrexed = compound: CN(NC(=O)CC(=O)NN(C)C(=S)c1ccccc1)C(=S)c1ccccc1 [Elesclomol] + Nc1nc2[nH]cc(CCc3ccc(C(=O)N[C@@H](CCC(=O)O)C(=O)O)cc3)c2c(=O)[nH]1 [Pemetrexed] (partner 0.2 µM)
Outline: as §1

Elesclomol + Pictilisib = compound: CN(NC(=O)CC(=O)NN(C)C(=S)c1ccccc1)C(=S)c1ccccc1 [Elesclomol] + CS(=O)(=O)N1CCN(Cc2cc3nc(-c4cccc5[nH]ncc45)nc(N4CCOCC4)c3s2)CC1 [Pictilisib] (partner 1 µM)
Outline: as §1

Elesclomol + Palbociclib = compound: CN(NC(=O)CC(=O)NN(C)C(=S)c1ccccc1)C(=S)c1ccccc1 [Elesclomol] + CC(=O)c1c(C)c2cnc(Nc3ccc(N4CCNCC4)cn3)nc2n(C2CCCC2)c1=O [Palbociclib] (partner 0.5 µM)
Outline: as §1

Elesclomol + Bortezomib = compound: CN(NC(=O)CC(=O)NN(C)C(=S)c1ccccc1)C(=S)c1ccccc1 [Elesclomol] + CC(C)C[C@H](NC(=O)[C@H](Cc1ccccc1)NC(=O)c1cnccn1)B(O)O [Bortezomib] (partner 0.002 µM)
Outline: as §1

Row | Cell Line | relative viability (Elesclomol + Lapatinib; first compound 0.003162 µM) | relative viability (Elesclomol + Lapatinib; first compound 0.01 µM) | relative viability (Elesclomol + Lapatinib; first compound 0.03162 µM) | relative viability (Elesclomol + Lapatinib; first compound 0.1 µM) | relative viability (Elesclomol + Pemetrexed; first compound 0.003162 µM) | relative viability (Elesclomol + Pemetrexed; first compound 0.01 µM) | relative viability (Elesclomol + Pemetrexed; first compound 0.03162 µM) | relative viability (Elesclomol + Pemetrexed; first compound 0.1 µM) | relative viability (Elesclomol + Pictilisib; first compound 0.003162 µM) | relative viability (Elesclomol + Pictilisib; first compound 0.01 µM) | relative viability (Elesclomol + Pictilisib; first compound 0.03162 µM) | relative viability (Elesclomol + Pictilisib; first compound 0.1 µM) | relative viability (Elesclomol + Palbociclib; first compound 0.003162 µM) | relative viability (Elesclomol + Palbociclib; first compound 0.01 µM) | relative viability (Elesclomol + Palbociclib; first compound 0.03162 µM) | relative viability (Elesclomol + Palbociclib; first compound 0.1 µM) | relative viability (Elesclomol + Bortezomib; first compound 0.003162 µM) | relative viability (Elesclomol + Bortezomib; first compound 0.01 µM) | relative viability (Elesclomol + Bortezomib; first compound 0.03162 µM) | relative viability (Elesclomol + Bortezomib; first compound 0.1 µM)
1 | HCC-15 | 0.869 | 0.684 | 0.574 | 0.284 | 0.237 | 0.23 | 0.24 | 0.187 | 0.719 | 0.522 | 0.523 | 0.289 | 0.714 | 0.629 | 0.518 | 0.12 | 0.998 | 0.905 | 0.662 | 0.42
2 | HCC-44 | 0.95 | 0.941 | 1.03 | 0.727 | 0.603 | 0.607 | 0.685 | 0.639 | 0.592 | 0.578 | 0.554 | 0.322 | 0.975 | 0.895 | 0.939 | 0.952 | 0.906 | 0.794 | 0.876 | 0.628
3 | HCC-78 | 0.704 | 0.65 | 0.932 | 0.798 | 0.901 | 0.856 | 0.911 | 0.956 | 0.252 | 0.2 | 0.229 | 0.217 | 0.493 | 0.377 | 0.489 | 0.466 | 0.487 | 0.419 | 0.447 | 0.494
4 | LCLC-103H |  |  |  |  | 0.476 | 0.483 | 0.467 | 0.431 | 0.628 | 0.471 | 0.736 | 0.457 | 0.482 | 0.481 | 0.471 | 0.517 | 1.12 | 0.865 | 1.07 | 0.838
5 | LK-2 | 0.698 | 0.22 | 0.17 | 0.0799 |  | 0.289 | 0.276 | 0.128 | 0.418 | 0.177 | 0.149 | 0.117 |  | 0.717 | 0.695 | 0.0756 |  |  |  | 
6 | NCI-H358 | 0.272 | 0.244 | 0.209 | 0.184 | 0.159 | 0.123 | 0.142 | 0.133 | 0.24 | 0.196 | 0.191 | 0.163 | 0.132 | 0.105 | 0.0798 | 0.0844 |  |  |  | 
7 | NCI-H441 |  |  |  |  | 0.239 | 0.234 | 0.18 | 0.0576 | 0.424 | 0.364 | 0.183 | 0.0824 | 0.253 | 0.22 | 0.126 | 0.081 | 0.55 | 0.454 | 0.25 | 0.0495
8 | NCI-H522 |  |  |  |  | 1.08 | 1.09 | 1.18 | 0.641 |  |  |  |  | 1.16 | 0.819 | 0.894 | 0.632 |  |  |  | 
9 | NCI-H596 | 1.04 | 1.11 | 1.03 | 0.381 | 0.523 | 0.452 | 0.489 | 0.211 | 0.374 | 0.341 | 0.346 | 0.218 |  |  |  |  | 1 | 1.04 | 0.95 | 0.156
10 | NCI-H727 | 0.591 | 0.365 | 0.165 | 0.0475 |  |  |  |  | 0.331 | 0.226 | 0.158 | 0.0437 | 0.633 | 0.494 | 0.676 | 0.497 | 0.679 | 0.405 | 0.185 | 0.0498
11 | NCI-H1395 | 1.01 | 0.368 | 0.289 | 0.304 | 0.829 | 0.436 | 0.201 | 0.183 | 0.65 | 0.324 | 0.292 | 0.436 | 0.659 | 0.36 | 0.309 | 0.219 |  |  |  | 
12 | NCI-H1703 | 0.262 | 0.216 | 0.157 | 0.129 |  |  |  |  | 0.198 | 0.106 | 0.133 | 0.128 |  |  |  |  | 0.136 | 0.0882 | 0.104 | 0.12
13 | NCI-H1793 | 0.657 | 0.613 | 0.651 | 0.112 | 0.833 | 0.643 | 0.855 | 0.102 | 0.273 | 0.307 | 0.335 | 0.178 | 0.3 | 0.297 | 0.247 | 0.123 |  |  |  | 
14 | NCI-H1944 | 0.829 | 0.714 | 0.846 | 0.688 | 0.613 | 0.724 | 0.572 | 0.189 | 0.381 | 0.29 | 0.318 | 0.328 | 0.328 | 0.328 | 0.347 | 0.227 |  |  |  | 
15 | NCI-H2170 | 0.273 | 0.285 | 0.259 | 0.257 | 0.28 | 0.28 | 0.27 | 0.26 | 0.328 | 0.266 | 0.298 | 0.193 | 0.396 | 0.358 | 0.358 | 0.29 |  |  |  | 
16 | NCI-H2342 |  |  |  |  | 0.732 | 0.634 | 0.728 | 0.705 |  |  |  |  | 0.495 | 0.489 | 0.517 | 0.411 |  |  |  | 
17 | SK-MES-1 | 0.563 | 0.446 | 0.429 | 0.325 | 0.982 | 0.597 | 0.524 | 0.415 | 0.402 | 0.312 | 0.238 | 0.199 | 0.325 | 0.291 | 0.221 | 0.184 |  |  |  | 
